Data on 3 compounds can be found in patent publication US20030092637A1, “Novel compounds” (priority 2000, published 2003).

This assay has as its system transformed human vascular endothelial cells (ECV cells). The assay is described as follows: Cellular growth assay (crystal violet), ECV cells. The format is cell-based.

Molecules are shown by their SMILES.

Method: Human embryonic lung fibroblasts (HFL-1 cells) and transformed endothelial cells (ECV cells) were obtained. Monolayer cultures were maintained on plastic in Eagle's MEM (Life Technologies, Ltd, Renfrewshire, UK). The medium was supplemented with 10% FCS (In Vitro AB, Stockholm, Sweden), 2 mM L-glutamine (ICN Biochemicals), penicillin (100 units/ml) and streptomycin (100 μg/ml) Cells were regularly checked for mycoplasma using GEN-PROBE Rapid detection system (Skafte & Claesson, Mölndal, Sweden).
In brief, cells were harvested by trypsinisation and seeded into 96-well microculture plates at 3000-5000 cells/well in Ham's F-12 medium (Sigma) supplemented with insulin (10 ng/ml), transferrin (25 ng/ml) and 10% FCS. After 4 h of plating, the cells were serum-starved for 24 h. […] Controls without growth factor and controls with different concentrations of DMSO were included. After 72, 96 and 120 h of growth, cells were fixed in glutaraldehyde, and cell nuclei were stained with crystal violet (Merck, Darmstadt, Germany). After washing and cell lysis for 24 h in 1% Triton X-100, the amount of bound dye was measured at 595 nm in a microplate photometer (Titertek multiscan). Results were corrected for DMSO effects.

One may read the inhibition as the share of the control response that was lost under treatment. The low end stands for a weak effect, the high end for a strong effect. `Cc1ccc(C(=O)Nc2ccc(S(=O)(=O)O)c3cc(S(=O)(=O)O)cc(S(=O)(=O)O)c23)cc1NC(=O)c1cccc(NC(=O)Nc2cccc(C(=O)Nc3cc(C(=O)Nc4ccc(S(=O)(=O)O)c5cc(S(=O)(=O)O)cc(S(=O)(=O)O)c45)ccc3C)c2)c1` [suramin] gave an inhibition at 200 µM (Homo sapiens, Endothelial cell, 0.2 mM suramin, untreated cells as reference) of 20%.
For `NCCC[C@](N)(C(=O)O)C(F)F` [DFMO, α-difluoromethylornithine], 5000 µM produced 5% inhibition (Homo sapiens, Endothelial cell, 5 mM DFMO only, cells dependent on 1 μM spermin).
On to `Oc1ccc2cc(O[C@@H]3OC[C@@H](O)[C@H](O)[C@H]3O)ccc2c1` [Xyl-2-Nap-6-OH, 6-hydroxy-2-naphthalenyl-β-D-xylopyranoside], for which the “inhibition of growth of ECV cells” value (0.05 mM Xyl-2-Nap-6-OH, untreated cells as reference) was 9% and the “inhibition of growth of ECV cells” value (Xyl-2-Nap-6-OH alone (concentration not restated; 0.2 mM in the compared combination)) stood at 31%.
